Laboratory results published in patent US12161621B2, “Methods for fructokinase mediation of alcohol craving and alcohol induced liver disease” (REGENTS OF THE UNIVERSITY OF COLORADO, A BODY CORPORATE, priority 2018, dated 2024).

Tested on: wild type mice
Assay: two-bottle choice alcohol preference with fructokinase inhibitor
Type: in vivo
Details: wild type mice on 10 percent alcohol vs water, fructokinase inhibitor administered for 4 weeks, FIG. 2G
Text: FIG. 2C provides delta FosB expression and densitometry in nucleus accumbens (Nacc) of wild type mice exposed to 0%, 3%, 6% and 10% alcohol for 10 weeks. FIG. 2D includes delta FosB expression and densitometry in nucleus accumbens (Nacc) of wild type and fructokinase knockout mice exposed to 10% alcohol for 10 weeks. […] FIG. 2F provides evidence of conditioned place preference in wild type and fructokinase knockout mice injected alcohol (2 g/kg). Data represents preference shifts for the paired section after vs before conditioning (time spent in the paired chamber posttest-pretest). […] One Way ANOVA with Tukey post hoc analysis; n=5 mice per group. Further evidence that KHK may mediate alcohol preference is shown by a conditioned place preference study, in which mice are injected with either alcohol or saline then placed in a distinctly different section of the apparatus for 4 alcohol and 4 saline trials. The mice were then tested in an alcohol-free state to determine whether they preferred the section of the apparatus that was paired with alcohol. […] It was also determined that preference for alcohol could be blocked by administering a fructokinase inhibitor (i.e., osthol) for 4 weeks to wild type mice on 10 percent alcohol. […] Thus, these studies show the novel finding that blocking fructokinase can block the craving for alcohol.

COc1ccc2ccc(=O)oc2c1CC=C(C)C [osthol]
reduced preference for alcohol in a two bottle preference system: 50%
